The results in this text go back to US20170266192A1, “METHODS FOR IMPROVING DIAPHRAGM FUNCTION” (CYTOKINETICS, INC., priority 2012, published 2017).

The test system of experiment [1] is permeabilized single fibers from rabbit psoas muscle. In words: Skinned fiber tension at constant calcium, rabbit psoas. The format is cell-based. As to the method: (§1) Muscle tissue for in vitro skinned fiber studies were prepared using a protocol based on Lynch and Faulkner (Am J Physiol 275:C1548-54 (1998)). Briefly, rat diaphragm or rabbit psoas muscles were rapidly dissected and rinsed with physiological saline. Muscles were then incubated in skinning solution (125 mM K-propionate, 20 mM imidazole, 5 mM EGTA, 2 mM MgCl2, 2 mM ATP, pH 7.0) supplemented with 0.5% Brij 58 (Sigma Chemicals, St. Louis, Mo.) or 0.5% Triton X-100 (Sigma Chemicals, St. Louis, Mo.) for 30 minutes at 4° C. Muscles were then placed in storage solution (125 mM K-propionate, 20 mM imidazole, 5 mM EGTA, 2 mM MgCl2, 2 mM ATP, glycerol 50%, pH 7.0) at −20° C. Muscles were incubated in storage solution at −20° C. for later use.
(§2) For skinned fiber analysis, single muscle fibers were dissected from larger segments of tissue in rigor buffer at 4° C. (20 μM MOPS, 5 μM MgCl2, 120 μM potassium acetate, 1 μM EGTA, pH 7.0). […]
(§3) The functional effects of the fast skeletal muscle troponin activator, Compound A (6-bromo-1-(ethylpropyl)imidazo[4,5-b]pyrazin-2-ol), on skeletal muscle force were assessed under isometric conditions in permeabilized single fibers from rabbit psoas muscle and rat diaphragm muscle according to the procedure of Example 1.

Experiment [2] has as its system permeabilized single fibers from rat diaphragm muscle. The experiment in a line: Skinned fiber tension at constant calcium, rat diaphragm. The experiment is classed as cell-based. How it is done: as §1, §2, §3
Experiment [3] has as its system rat diaphragm muscle. The experiment in a line: Diaphragm repeated contraction fatigue analysis. The conditions noted are these: 5 uM and 10 uM, dose-dependent; 20 Hz stimulation, 10 minutes. As to the method:
Diaphragm contractile force was measured by electrical field stimulation in an organ bath system (Radnoti) based on a standard operating protocol adapted from the Treat NMD website (http://www.treat-nmd.eu/downloads/file/sops/dmd/MDX/DMD M.1.2.002.pdf). The diaphragm and the last floating rib from SHAM and LAD rats were excised, rinsed in physiological saline, and placed in a temperature controlled water-jacketed chamber (26-27° C.) containing Krebs-Henseleit Buffer (118 mM NaCl, 10 mM glucose, 4.6 mM KCl, 1.2 mM KH2PO4, 1.2 mM MgSO4*7H2O, 24.8 mM NaHCO3, 2.5 mM CaCl2, 50 mg/L tubocurarine, 50 U/L insulin, pH:7.4) that was continuously aerated with 95% O2/[…]. After 10 minutes of equilibration, vertical strips spanning the floating rib to the central tendon were cut from diaphragms. Braided silk sutures were tied at the central tendon and floating rib and attached to a force transducer between two platinum electrodes. Diaphragm strips were set to a length that produced maximum twitch tension (Lo). […]
Following the procedure of Example 7, diaphragms were subjected to repeated electrical stimulations (20 Hz stimulation, 330 ms train duration, 1 train/sec) over a period of 10 minutes. Force production was measured over 600 contractions in rat diaphragm muscle ex vivo by field electrical stimulation in the presence and absence of Compound B (5 uM and 10 uM).

For experiment [4], the system named is rat skinned diaphragm fibers. The experiment in a line: Force-pCa skinned muscle fiber analysis. The format is cell-based. As to the method: as §1
For skinned fiber analysis, single muscle fibers were dissected from larger segments of tissue in rigor buffer at 4° C. ([…], pH 7.0). They were then suspended between a 400 A force transducer (Aurora Scientific, Ontario, Canada) and a fixed post and secured with 2-4 μl of a 5% solution of methylcellulose in acetone. Fibers were then incubated at 10° C. in a relaxing buffer ([…], 1 mg/ml creatine kinase, 1 mM DTT, 44 ppm antifoam, pH 7.0) and baseline tension adjusted. Tension was generated in each fiber by changing fiber buffer over to relax buffer supplemented with 1 mM EGTA and one or more concentrations of aqueous calcium chloride. Test articles were added to these buffers in a 1% DMSO solution.
Force production was measured in rat skinned diaphragm fibers exposed to increasing concentrations of calcium in the presence and absence of the fast skeletal muscle troponin activator Compound B, (3-(2-(((trans)-3-fluoro-1-(3-fluoropyridin-2-yl)cyclobutyl)methylamino)pyrimidin-5-yl)benzamide), according to the procedure of Example 1.
Force production was measured in rat skinned diaphragm fibers exposed to increasing concentrations of calcium in the presence and absence of the fast skeletal muscle troponin activator Compound C, 1-(ethylpropyl)-6-ethynylimidazo[4,5-b]pyrazin-2-ol, according to the procedure in Example 1.

Experiment [5] concerns rat diaphragm muscle. The experiment in a line: Force-frequency relationship, ex vivo electrical field stimulation. As to the method:
(§4) Diaphragm contractile force was measured by electrical field stimulation in an organ bath system (Radnoti) based on a standard operating protocol adapted from the Treat NMD website (http://www.treat-nmd.eu/downloads/file/sops/dmd/MDX/DMD M.1.2.002.pdf). The diaphragm and the last floating rib from SHAM and LAD rats were excised, rinsed in physiological saline, and placed in a temperature controlled water-jacketed chamber (26-27° C.) containing Krebs-Henseleit Buffer (118 mM NaCl, 10 mM glucose, 4.6 mM KCl, 1.2 mM KH2PO4, 1.2 mM MgSO4*7H2O, 24.8 mM NaHCO3, 2.5 mM CaCl2, 50 mg/L tubocurarine, 50 U/L insulin, pH:7.4) that was continuously aerated with 95% O2/[…]. After 10 minutes of equilibration, vertical strips spanning the floating rib to the central tendon were cut from diaphragms. Braided silk sutures were tied at the central tendon and floating rib and attached to a force transducer between two platinum electrodes. Diaphragm strips were set to a length that produced maximum twitch tension (Lo). The force-frequency profile of the muscle was obtained by stimulating the muscle at frequencies between 10-150 Hz (Grass Stimulator, 800 ms train duration, 0.6 ms pulse width).
Force production was measured in rat diaphragm muscle ex vivo by electrical field stimulation in the presence and absence of Compound B according to the procedure of Example 6. Compound B was suspended in DMSO and added directly to the bath.
Force production was measured in rat diaphragm muscle ex vivo by electrical field stimulation in the presence and absence of fast skeletal muscle troponin activator Compound D, 1-(2-(((trans)-3-fluoro-1-(3-fluoropyridin-2-yl)cyclobutyl)methylamino)pyrimidin-5-yl)-1H-pyrrole-3-carboxamide according to the procedure of Example 6. Compound D was suspended in DMSO and added directly to the bath.

The subject of experiment [6] is WT and SOD1 mouse diaphragm muscle. The experiment in a line: Diaphragm force-frequency relationship in a mouse ALS model. To be noted: frequencies up to 30 Hz; dose-dependent. How it is done:
as §4, with “wild type (WT)” for “SHAM”, “SOD1 mice” for “LAD rats”, “width). Compound C was suspended in DMSO and directly added into the bath.” for “width).”

The test system of another experiment is SOD1 mice. The experiment in a line: Unrestrained whole body plethysmography (UWBP). The format is in vivo, mouse. To be noted: 10 mg/kg. As to the method: Wild type (WT) and SOD1 mice were dosed with vehicle or 10 mg/kg Compound C and placed in plethysmography chambers for 30 minutes of acclimatization. After acclimatization, respiratory parameters, including tidal volume, respiratory rate, and minute ventilation, were monitored for 10 minutes at room air. Upon completion of baseline room air measurements, animals were exposed to a 5% CO2 gas mixture for 30 minutes. After the 5% CO2 exposure, animals were re-exposed to room air and monitored.

The test system of experiment [7] is skinned diaphragm fibers from SHAM and LAD rats. In words: Force-pCa skinned muscle fiber analysis in a rat model of HF. The experiment is classed as cell-based. To be noted: 3 μM. As to the method:
as §1
For skinned fiber analysis, single muscle fibers were dissected from larger segments of tissue in rigor buffer at 4° C. (20 μM MOPS, 5 μM MgCl2, 120 μM potassium acetate, 1 μM EGTA, pH 7.0). They were then suspended between a 400 A force transducer (Aurora Scientific, Ontario, Canada) and a fixed post and secured with 2-4 μl of a 5% solution of methylcellulose in acetone. […]
Force production was measured in skinned diaphragm fibers from SHAM and LAD rats exposed to increasing concentrations of calcium in the presence and absence of Compound D according to the procedure of Example 1.

[8] abbreviates: skinned fibers, constant calcium, 10 nM-40 μM.
[9] abbreviates: 30 μM, submaximal frequencies of electrical stimulation.

Molecules are shown by their SMILES.

In the case of `CCC(CC)n1c(O)nc2ncc(Br)nc21` [Compound A, 6-bromo-1-(ethylpropyl)imidazo[4,5-b]pyrazin-2-ol], the EC50 (in general, the concentration that produces a half-maximal response) in experiment [1] (rabbit psoas fibers, constant free calcium 1.78 μM (pCa=5.75), n=3, read-out: EC50, increase in skinned fiber tension) was 0.59 µM; in experiment [2] (rat diaphragm fibers, constant free calcium 3.16 μM (pCa=5.5), n=4, read-out: EC50, increase in skinned fiber tension), 1.2 µM. Besides, the “tension in rabbit psoas muscle” value in experiment [1] (setting [8]) is “increased tension”. Further, the “tension in rat diaphragm muscle” value in experiment [2] (setting [8]) is recorded as “increased tension”.

For `NC(=O)c1cccc(-c2cnc(NC[C@]3(c4ncccc4F)C[C@H](F)C3)nc2)c1` [Compound B, 3-(2-(((trans)-3-fluoro-1-(3-fluoropyridin-2-yl)cyclobutyl)methylamino)pyrimidin-5-yl)benzamide], the “force production over 600 contractions compared to vehicle-only diaphragms” value in the experiment on rat diaphragm muscle [3] is given as “significantly more force”. Further, the “pCa at 50% of Maximum Tension, Log [Ca^2+] (M)” value in experiment [4] (0.5 uM compound, vehicle −5.43 ± 0.03) is −5.78 ± 0.008 M; in experiment [4] (1 uM compound, vehicle −5.43 ± 0.03), −5.90 ± 0.03 M; in experiment [4] (10 uM compound, vehicle −5.43 ± 0.03), −6.46 ± 0.03 M. In addition, in experiment [4] (10 μM Compound B), the “increase in calcium sensitivity compared to vehicle-only muscle fibers” value turned out to be 10 fold. In addition, the “force production compared to vehicle-only diaphragms” value in the experiment with rat diaphragm muscle [5] (frequencies up to 30 Hz of electrical stimulation) is recorded as “significantly more force”.

Turning to `C#Cc1cnc2nc(O)n(C(CC)CC)c2n1` [Compound C, 1-(ethylpropyl)-6-ethynylimidazo[4,5-b]pyrazin-2-ol], the “pCa at 50% of Maximum Tension, Log [Ca^2+] (M)” value was −5.59 ± 0.007 M in experiment [4] (0.1 uM compound, vehicle −5.43 ± 0.054); −6.19 ± 0.018 M in experiment [4] (1 uM compound, vehicle −5.43 ± 0.054); −6.74 ± 0.28 M in experiment [4] (10 uM compound, vehicle −5.43 ± 0.054). The “increase in calcium sensitivity compared to vehicle-only muscle fibers” value in experiment [4] (10 μM Compound C) amounted to 10 fold. Further, the “force production in SOD1 diaphragm muscle compared to vehicle-only” value in experiment [6] is “significantly more force”. In addition, the “force production in WT diaphragm muscle compared to vehicle-only” value in experiment [6] is reported as “significantly more force”. In addition, in the experiment on SOD1 mice (after 30 minute exposure to 5% CO2), the “tidal volume at recovery compared to vehicle-treated animals” value is on record as “significantly higher tidal volume”. In addition, the “tidal volume at baseline compared to vehicle-treated animals” value with SOD1 mice (room air) is “significantly higher tidal volume”.

In the case of `NC(=O)c1ccn(-c2cnc(NCC3(c4ncccc4F)CC(F)C3)nc2)c1` (stereo not drawn) [Compound D, 1-(2-(((trans)-3-fluoro-1-(3-fluoropyridin-2-yl)cyclobutyl)methylamino)pyrimidin-5-yl)-1H-pyrrole-3-carboxamide], in experiment [7], the “Ca^2+ sensitivity of HF diaphragm fibers” value is listed as “significantly increased Ca^2+ sensitivity” and the “Ca^2+ sensitivity of SHAM diaphragm fibers” value was “significantly increased Ca^2+ sensitivity”. In the experiment on rat diaphragm muscle [5] (setting [9]), the “force in HF (LAD) diaphragms” value is recorded as “significantly increased force” and the “force in SHAM diaphragms” value is listed as “significantly increased force”.
